The subject of the assay is Ap4A-RNA. Briefly: In vitro Ap4A-RNA decapping assay (cap-labelled RNA, thin-layer chromatography). It counts as biochemical. To be noted: recombinant protein 250 nM to 750 nM, 37° C., 30 min, TLC. How it is done: Briefly, using the Ap4A mixture (ATP and Ap4A) or Ap4A instead of ATP for in vitro transcription by MEGAshortscript™ T7 Transcription Kit (Life technologies; Cat. No. AM1354), we produced a 50 nt RNA. Template is the same as making 50 nt RNA for MEFs transfection. Note that if the mixture is used, this nucleotide mixture (ATP and Ap4A) still has all the components (lysine, inorganic pyrophosphatase etc) added during the Ap4A synthesis. In vitro transcription reaction was carried out at 37° C. for at least 4 h in a 20 μL reaction containing 6 pmol DNA template, 2 μL 10× reaction buffer, 2 μL of nucleotides (75 mM CTP, 75 mM UTP, 75 mM GTP), 2 μL of ATP/Ap4A mixture that we produced above, and 2 μL T7 enzyme mix (MEGAshortscript™ Kit, Life technologies, Cat. No. AM1354). After that, 1 μL TURBO DNase was added and incubated at 37° C. for 15 min to remove the DNA template. Unincorporated nucleotides were removed from the RNA preparation by Microspin G-25 Column (GE Healthcare, Cat. No. 27-5325-01), and the process was repeated twice. The radioactively labelled RNA was separated by 10% urea gel. […]
Decapping reaction products were resolved by PEI-cellulose TLC plates (Merk, Cat. No. 1057250001) and developed in 0.45 M (NH4)2SO4 in a glass chamber at room temperature. […] When required, signals were quantified by ImageQuantTL.

“DCP2 (NUDT20): recombinant untagged mouse DCP2 catalytic core domain (95-260 aa)”: the Ap4A-RNA decapping activity result is listed as “only NUDT2 has Ap4A-RNA decapping activity”.

(Values after patent US20250049894A1, “TREATMENT OF NUDT2 MUTATION” (UNIVERSITÉ DE GENÈVE, priority 2021, published 2025).)
